Data from patent US20220281831A1, “FUSED-GLUTARIMIDE CRBN LIGANDS AND USES THEREOF” (Kymera Therapeutics, Inc., priority 2019, published 2022).

Target: His-tagged CRBN-DDB1 complex (Homo sapiens, UniProt Q96SW2)
Experiment: Time-Resolved Fluorescence Resonance Energy Transfer (TR-FRET / HTRF) CRBN binding assay, displacement of Cy5-labeled thalidomide
Conditions: His-CRBN-DDB1, Cy5-thalidomide 8 nM, 1 hour room temperature
Protocol: Time-Resolved Fluorescence Resonance Energy Transfer (TR-FRET) Assay.
Equal volumes of His-tagged CRBN-DDB1 complex (56 nM) was mixed with Eu-cryptate labeled Anti-6HIS-monoclonal antibody (50× dilution from the commercial stock solution, Vender: Cisbio, Cat. #61HI2KLA) in a final buffer containing 20 mM HEPES pH 7.0, 150 mM NaCl, 0.005% Tween-20. […] The mixture were incubated at room temperature for 1 hour. FRET signals were measured on an EnVision plate reader (Perkin Elmer) by exciting at 340 nm and recording emission at both 615 nm as no FRET control and 665 nm as the FRET signals with a 60 microsecond delay. FRET efficiency was calculated as the ratio of fluorescent signals at […]. Quantitative loss of FRET efficiency as a function of compound concentrations was fitted by a four-parameter Logistic Function using GraphPad Prism 7.0 and the IC50 values were reported for each compound.
The compound numbers correspond to the compound numbers in Table 1.

His-tagged CRBN-DDB1 complex, sequence (Q96SW2 whole entry): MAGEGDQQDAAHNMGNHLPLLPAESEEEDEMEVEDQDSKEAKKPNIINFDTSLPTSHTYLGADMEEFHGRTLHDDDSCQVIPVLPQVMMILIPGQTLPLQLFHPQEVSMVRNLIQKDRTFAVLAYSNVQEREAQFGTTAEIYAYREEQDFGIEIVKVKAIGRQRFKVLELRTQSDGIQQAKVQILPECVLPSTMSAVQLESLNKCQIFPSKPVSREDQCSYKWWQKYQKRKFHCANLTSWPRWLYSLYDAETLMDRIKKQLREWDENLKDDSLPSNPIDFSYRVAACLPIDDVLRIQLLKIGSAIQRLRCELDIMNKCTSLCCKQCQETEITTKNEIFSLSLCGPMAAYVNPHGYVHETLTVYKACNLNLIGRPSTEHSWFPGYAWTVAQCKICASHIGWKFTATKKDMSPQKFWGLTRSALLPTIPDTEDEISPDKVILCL
His-tagged CRBN-DDB1 complex, sequence (Q16531 whole entry partner): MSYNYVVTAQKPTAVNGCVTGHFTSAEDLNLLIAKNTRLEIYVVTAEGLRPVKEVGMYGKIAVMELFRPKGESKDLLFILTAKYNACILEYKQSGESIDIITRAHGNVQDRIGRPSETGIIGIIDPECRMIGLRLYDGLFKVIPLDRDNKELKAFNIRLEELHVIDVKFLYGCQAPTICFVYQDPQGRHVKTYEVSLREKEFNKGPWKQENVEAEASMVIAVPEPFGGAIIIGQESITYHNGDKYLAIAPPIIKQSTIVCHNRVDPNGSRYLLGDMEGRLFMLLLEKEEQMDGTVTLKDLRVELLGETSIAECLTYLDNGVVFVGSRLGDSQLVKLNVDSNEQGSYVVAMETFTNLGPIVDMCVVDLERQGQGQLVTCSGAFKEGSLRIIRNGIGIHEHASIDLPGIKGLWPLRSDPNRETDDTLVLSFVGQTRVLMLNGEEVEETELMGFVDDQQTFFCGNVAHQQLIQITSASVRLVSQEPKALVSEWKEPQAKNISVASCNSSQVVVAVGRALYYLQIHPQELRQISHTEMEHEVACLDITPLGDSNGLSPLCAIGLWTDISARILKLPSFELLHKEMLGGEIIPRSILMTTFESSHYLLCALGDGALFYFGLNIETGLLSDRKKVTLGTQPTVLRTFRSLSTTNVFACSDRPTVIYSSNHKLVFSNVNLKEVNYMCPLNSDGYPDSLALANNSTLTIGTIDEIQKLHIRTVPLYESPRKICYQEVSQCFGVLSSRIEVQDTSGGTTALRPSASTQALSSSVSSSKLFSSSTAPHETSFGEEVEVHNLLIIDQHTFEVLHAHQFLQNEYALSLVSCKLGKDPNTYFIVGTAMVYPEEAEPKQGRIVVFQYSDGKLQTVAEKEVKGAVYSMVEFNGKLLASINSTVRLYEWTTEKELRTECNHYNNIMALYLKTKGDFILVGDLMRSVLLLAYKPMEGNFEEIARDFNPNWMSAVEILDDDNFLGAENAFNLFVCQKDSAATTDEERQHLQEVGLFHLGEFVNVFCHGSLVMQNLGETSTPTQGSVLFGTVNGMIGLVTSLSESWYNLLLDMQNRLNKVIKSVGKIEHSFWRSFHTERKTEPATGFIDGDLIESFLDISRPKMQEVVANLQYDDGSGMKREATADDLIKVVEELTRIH

`O=C1Cc2cnc(Br)cc2C(=O)N1` [Compound I-13, 7-bromo-2,4-dihydro-2,6-naphthyridine-1,3-dione] and `O=C1NC(=O)c2cc(Br)ccc21` [Compound I-28, 5-bromo-2H-isoindole-1,3-dione] cannot be ordered by IC50: over 100 µM for the first, over 100 µM for the second.

`Cc1ccccc1-c1ccc2c(c1)C(=O)NC2=O` [Compound I-30, 5-(2-methylphenyl)-2H-isoindole-1,3-dione] and `Cc1ncoc1-c1ccc2c(c1)C(=O)NC2=O` [Compound I-32, 5-(4-methyl-1,3-oxazol-5-yl)-2H-isoindole-1,3-dione] cannot be ordered by IC50: over 100 µM for the first, over 100 µM for the second.

`Cc1ccccc1-n1cc2c(n1)CC(=O)NC2=O` [Compound I-35, 2-(2-methylphenyl)-5H,7H-pyrazolo[4,3-c]pyridine-4,6-dione] and `Cc1ccccc1N1C[C@@H]2C(=O)NC(=O)[C@@H]2C1` [Compound I-121] cannot be ordered by IC50: over 100 µM for the first, over 100 µM for the second.

`O=c1[nH]c(=O)c2cc(Br)ccc2[nH]1` [Compound I-55, 6-Bromo-1,3-dihydroquinazoline-2,4-dione] and `O=c1[nH]c(=O)c2c(Br)cccc2[nH]1` [Compound I-56, 5-Bromo-1,3-dihydroquinazoline-2,4-dione] cannot be ordered by IC50: over 100 µM for the first, over 100 µM for the second.

`Cn1c(=O)[nH]c(=O)c2cc(Br)ccc21` [Compound I-59, 6-bromo-1-methyl-3H-quinazoline-2,4-dione] and `Cn1c(=O)[nH]c(=O)c2c(Br)cccc21` [Compound I-60, 5-bromo-1-methyl-3H-quinazoline-2,4-dione] cannot be ordered by IC50: over 100 µM for the first, over 100 µM for the second.

Compared with `O=C1CC2(CCN(c3ccc(Br)cc3)CC2)CC(=O)N1` [Compound I-86], `O=C1CC2(CCN(c3ccc(F)cc3)CC2)CC(=O)N1` [Compound I-92] is lower in IC50: over 100 µM for the first, 30 to 100 µM for the second. The second is the more potent here.

`COc1cc(F)ccc1N1CCC2(CC1)CC(=O)NC(=O)C2` [Compound I-87] and `O=C1CC2(CCN(c3ccc(F)cc3Cl)CC2)CC(=O)N1` [Compound I-110] cannot be ordered by IC50: over 100 µM for the first, over 100 µM for the second.

`COc1cccc(N2CCC3(CC2)CC(=O)NC(=O)C3)c1` [Compound I-88] and `CC(C)Oc1cccc(N2CCC3(CC2)CC(=O)NC(=O)C3)c1` [Compound I-101] cannot be ordered by IC50: over 100 µM for the first, over 100 µM for the second.

`O=C1CC2(CCN(c3cccc(Cl)c3)CC2)CC(=O)N1` [Compound I-89] and `O=C1CC2(CCN(c3cccc(O)c3)CC2)CC(=O)N1` [Compound I-97] cannot be ordered by IC50: over 100 µM for the first, over 100 µM for the second.

`O=C1CC2(CCN(c3ccc(C(=O)NC4CC4)cc3)CC2)CC(=O)N1` [Compound I-90] and `NC(=O)c1ccc(N2CCC3(CC2)CC(=O)NC(=O)C3)cc1` [Compound I-116] cannot be ordered by IC50: over 100 µM for the first, over 100 µM for the second.

First: O=C1CC2(CCN(c3ccc(OCc4ccccc4)cc3)CC2)CC(=O)N1 [Compound I-91]
Second: O=C1CC2(CCN(c3ccc(Oc4ccccc4)cc3)CC2)CC(=O)N1 [Compound I-114]
The IC50 of the first is higher: over 100 µM for the first, 30 to 100 µM for the second.

`Cc1ccc(N2CCC3(CC2)CC(=O)NC(=O)C3)cc1` [Compound I-93] and `O=C1CC2(CCN(c3ccc(O)cc3)CC2)CC(=O)N1` [Compound I-103] cannot be ordered by IC50: over 100 µM for the first, over 100 µM for the second.

`O=C1CC2(CCN(c3cccc4ncccc34)CC2)CC(=O)N1` [Compound I-94] and `O=C1CC2(CCN(c3cccc4cccnc34)CC2)CC(=O)N1` [Compound I-109] cannot be ordered by IC50: over 100 µM for the first, over 100 µM for the second.

First: CCCOc1ccc(N2CCC3(CC2)CC(=O)NC(=O)C3)cc1 [Compound I-95]
Second: Nc1ccc(N2CCC3(CC2)CC(=O)NC(=O)C3)cc1 [Compound I-113]
The IC50 of the first is lower: 30 to 100 µM for the first, over 100 µM for the second.

`CCOC(=O)c1cccc(N2CCC3(CC2)CC(=O)NC(=O)C3)c1` [Compound I-96] and `O=C1CC2(CCN(c3cccc(C(=O)O)c3)CC2)CC(=O)N1` [Compound I-106] cannot be ordered by IC50: over 100 µM for the first, over 100 µM for the second.

`O=C1CC2(CCN(c3ccc(-c4ccccc4)cc3)CC2)CC(=O)N1` [Compound I-98] and `O=Cc1ccc(N2CCC3(CC2)CC(=O)NC(=O)C3)cc1` [Compound I-112] cannot be ordered by IC50: over 100 µM for the first, over 100 µM for the second.

`O=C1CC2(CCN(c3cccc(F)c3)CC2)CC(=O)N1` [Compound I-99] and `O=C1CC2(CCN(c3cccc(OC(F)(F)F)c3)CC2)CC(=O)N1` [Compound I-102] cannot be ordered by IC50: over 100 µM for the first, over 100 µM for the second.

`CC(=O)Nc1cccc(N2CCC3(CC2)CC(=O)NC(=O)C3)c1` [Compound I-100] and `CS(=O)(=O)c1ccc(N2CCC3(CC2)CC(=O)NC(=O)C3)cc1` [Compound I-107] cannot be ordered by IC50: over 100 µM for the first, over 100 µM for the second.

`O=C1CC2(CCN(c3cccc4cnccc34)CC2)CC(=O)N1` [Compound I-104] and `O=C1CC2(CCN(c3ccccc3Cl)CC2)CC(=O)N1` [Compound I-115] cannot be ordered by IC50: over 100 µM for the first, over 100 µM for the second.

`O=C1CC2(CCN(c3ccc(OC(F)(F)F)cc3)CC2)CC(=O)N1` [Compound I-105] and `COc1ccc2cc(N3CCC4(CC3)CC(=O)NC(=O)C4)ccc2c1` [Compound I-117] cannot be ordered by IC50: over 100 µM for the first, over 100 µM for the second.

First: CC(C)(C)OC(=O)NCc1ccc(N2CCC3(CC2)CC(=O)NC(=O)C3)cc1 [Compound I-108]
Second: N#Cc1ccccc1N1CCC2(CC1)CC(=O)NC(=O)C2 [Compound I-111]
The IC50 of the first is lower: 30 to 100 µM for the first, over 100 µM for the second. The first is the more potent here.

`O=C1CC2(CCN(c3ccc4c(c3)CCO4)CC2)CC(=O)N1` [Compound I-118] and `O=C1CC2(CCN(c3ccc4c(c3)OCO4)CC2)CC(=O)N1` [Compound I-119] cannot be ordered by IC50: over 100 µM for the first, over 100 µM for the second.

`O=C1NC(=O)[C@@H]2CN(c3ccc(-c4ccccc4)c(F)c3)C[C@H]12` [Compound I-120] and `O=C1NC(=O)[C@@H]2CN(c3ccc(OCc4ccccc4)cc3)C[C@H]12` [Compound I-128] cannot be ordered by IC50: over 100 µM for the first, over 100 µM for the second.

`COC(=O)c1ccc(N2C[C@@H]3C(=O)NC(=O)[C@@H]3C2)cc1` [Compound I-122] and `O=C(NC1CC1)c1ccc(N2C[C@@H]3C(=O)NC(=O)[C@@H]3C2)cc1` [Compound I-127] cannot be ordered by IC50: over 100 µM for the first, over 100 µM for the second.

First: O=C1NC(=O)[C@@H]2CN(c3ccc(Br)cc3)C[C@H]12 [Compound I-123]
Second: O=C1NC(=O)[C@@H]2CN(c3ccc(F)cc3)C[C@H]12 [Compound I-129]
The IC50 of the first is lower: 30 to 100 µM for the first, over 100 µM for the second. The first is the more potent here.

`COc1cccc(N2C[C@@H]3C(=O)NC(=O)[C@@H]3C2)c1` [Compound I-125] and `CC(C)Oc1cccc(N2C[C@@H]3C(=O)NC(=O)[C@@H]3C2)c1` [Compound I-137] cannot be ordered by IC50: over 100 µM for the first, over 100 µM for the second.

`O=C1NC(=O)[C@@H]2CN(c3cccc(Cl)c3)C[C@H]12` [Compound I-126] and `O=C1NC(=O)[C@@H]2CN(c3cccc(O)c3)C[C@H]12` [Compound I-134] cannot be ordered by IC50: over 100 µM for the first, over 100 µM for the second.

Compared with `Cc1ccc(N2C[C@@H]3C(=O)NC(=O)[C@@H]3C2)cc1` [Compound I-130], `O=C1NC(=O)[C@@H]2CN(c3ccc(O)cc3)C[C@H]12` [Compound I-140] is higher in IC50: 30 to 100 µM for the first, over 100 µM for the second. The first is the more potent here.

`O=C1NC(=O)[C@@H]2CN(c3cccc4ncccc34)C[C@H]12` [Compound I-131] and `O=C1NC(=O)[C@@H]2CN(c3cccc(F)c3)C[C@H]12` [Compound I-135] cannot be ordered by IC50: over 100 µM for the first, over 100 µM for the second.

`CC(=O)Nc1cccc(N2C[C@@H]3C(=O)NC(=O)[C@@H]3C2)c1` [Compound I-136] and `O=C1NC(=O)[C@@H]2CN(c3cccc(OC(F)(F)F)c3)C[C@H]12` [Compound I-139] cannot be ordered by IC50: over 100 µM for the first, over 100 µM for the second.

`CCCOc1ccc(N2C[C@@H]3C(=O)NC(=O)[C@@H]3C2)cc1` [Compound I-138] was tested, and the IC50 was over 100 µM.
